How the values were obtained:
[1] = test system: primary chicken neurons; experiment: MTT cell viability assay on primary chicken neurons, components applied for forty-eight hours; format: cell-based; conditions: for effect on cell viability: 48 h
Experimental: Further tests were conducted to assess the neuroprotective effects of a number of the components previously disclosed herein at various concentrations on primary chicken neurons, individually and in select combinations. The study components were applied to test specimens obtained on embryonic day 8 in vitro (“DIV8”) for a period of forty-eight hours, after which, the test specimens were evaluated in accordance with MTT assay to determine cell viability.
One day old fertilized eggs were stored under appropriate conditions until the start of breeding. On embryonic day zero, eggs were transferred to a breeding incubator and maintained under turning at 37.8° C. and 55% humidity until embryonic day eight.
All cell culture experiments were carried out under sterile conditions and all procedures were performed in a cell culture unit with special cell culture equipment. Glassware, forceps ad/or scissors were sterilized prior to experiments. Stock chemical solutions were obtained sterile, and final solution and culture medium were prepared fresh in a laminar airflow cabinet.
Neurons were prepared as follows. DIV8 embryos were transferred to plastic dish and decapitated. Bother hemispheres were removed, collected, and cleaned from any loose tissue. Hemispheres were then mechanically disassociated and 4.8×10^4 cells per well in a 96-well plate, and each well was seeded with 160 μL.
The cell culture medium for chicken telencephalon neurons consists of DMEM with 4.5 grams glucose, 5% Nu Serum, 0.01% gentamycin, and 2 mM L-glutamine. Cultures are maintained at 37° C., 95% humidity and 5% CO2.
The study component(s) and vehicle controls (“VC”) were applied to chicken neurons at DIVE for forty-eight hours. The viability of the chicken neurons at DIV10 were determined according to an MTT cell viability assay.
MTT Cell Viability Assay: The viability of the chicken neurons were determined by MTT assay using a plate reader at 570 nanometers as described in SOP MET004. The assay measures the mitochondrial dehydrogenase activity which reduces yellow MTT to dark blue formazan crystals. As the reaction is catalyzed only in living cells, the assay is used to determine cell viability. MTT is added to each well at a concentration of 0.5 milligrams per milliliter. After two hours, the MTT containing medium is aspirated. Cells are lysed in 3% SDS and the formazan crystals are dissolved in isopropanol/hydrochloric acid. Optical density is measured with a plate-reader at a wavelength of 570 nanometers.
Cell survival rate is expressed as optical density, and values are calculated as a percentage of the vehicle control values, the vehicle control being 100%.

[2] = cited from earlier work

## COc1cc(/C=C/C(=O)CC(=O)/C=C/c2ccc(O)c(OC)c2)ccc1O [Curcumin, curcumin]
[1]; Part 3, curcumin applied alone
  protective effects, curcumin alone vs in combination with MSM/FDP: protective effects only in combinations with MSM/FDP but not when applied alone
[1]; curcumin 50, 20, 10 and 5 μM, vs vehicle
  effect on cell viability: negative effects on cell viability
[1]; curcumin lowest concentration 0.01 μM, vs vehicle
  effect on cell viability: positive influence on cell viability

## C[S+](C)[O-] [DMSO, Dimethyl sulfoxide]
[1]; DMSO 5%, vs vehicle treated cells
  effect on cell viability: toxic effects
[1]; DMSO, all other concentrations tested, vs vehicle treated cells
  effect on cell viability: minor negative effect on cell viability
[2]
  DMSO converted to MSM in the body: approximately 15%

## O=C(COP(=O)(O)O)[C@@H](O)[C@H](O)[C@H](O)COP(=O)(O)O [FDP, Fructose 1,6-diphosphate]
[1]; FDP highest concentrations 50, 10 and 5 mM
  effect on cell viability: toxic effects
[1]; FDP, other applied concentrations
  effect on cell viability: no significant effects

## CS(C)(=O)=O [MSM, Methylsulfonylmethane]
[1]; MSM 0.1 μM vs DMSO 12.8 μM in combinations
  concentration of MSM relative to DMSO achieving the same effects on cell viability: 128 times less concentrated
[1]; MSM 0.0001 mM = 0.1 μM vs DMSO 12.8 μM = 0.0001%
  effects on cell viability in the combinations, MSM vs DMSO: same effects on cell viability
[1]; MSM highest concentration 50 mM
  effect on cell viability: minor negative effect
[1]; MSM vs DMSO, each applied alone
  tolerance by cells when applied alone: tolerated MSM better than DMSO
[1]; MSM, all other applied concentrations, increase seen at 1 and 0.01 mM
  effect on cell viability: no or even a slight increase in cell viability

## Oc1ccc(C=Cc2cc(O)cc(O)c2)cc1 [Resveratrol, resveratrol]
[1]; resveratrol 20, 10 and 5 μM, vs vehicle
  effect on cell viability: positive effects on cell viability
[1]; resveratrol 50 and 100 μM, vs vehicle
  effect on cell viability: toxic to cells
[1]; resveratrol alone 20 μM
  cell viability compared to resveratrol (20 μM) plus DMSO/FDP: even better effects on cell viability
